Converted amounts (≈) assume the structure as drawn. Where two headings read alike, the source gives them in different places.
Assays:
[1] = system: Bacillus subtilis; assay: Minimal inhibitory concentration (MIC) determination; format: cell-based; settings: Bacillus subtilis
Method: (§1) The minimal inhibitory concentration (MIC) of tested compounds was determined following the NCCLS standard. The experiments were conducted in 96-well microtiter plates using two-fold dilutions in Muller-Hilton broth with (Streptococcus pneumonia) or without blood (Bacillus subtilis, Enterococcus faecalis, Staphylococcus aureus). Exponentially growing cells at 5×10^5 cells/ml were incubated with test compounds at various concentrations.

[2] = system: Enterococcus faecalis; assay: as above; format: cell-based; settings: Enterococcus faecalis
Method: as §1

[3] = system: Staphylococcus aureus; assay: as above; format: cell-based; settings: Staphylococcus aureus
Method: as §1

[4] = system: Streptococcus pneumoniae; assay: as above; format: cell-based; settings: Streptococcus pneumoniae
Method: as §1

[5] = biological target: T1, H. pylori PBP1a (Helicobacter pylori, UniProt O25319, /I22V/I24V/I79V/M17V/S417T/V16I, form not given); format: binding; settings: read-out: IC50 (fluorescence anisotropy assay, displacement of F-Moe); 100 nM F-Moe, 10 μg/ml H. pylori PBP1a, 10 mM Tris pH 8.0, 100 mM NaCl
T1 sequence (O25319 1-659 V16I/M17V/I22V/I24V/G44S/I79V/I101V/F125L/G242S/E323D/D336E/E406V/S417T/D508E): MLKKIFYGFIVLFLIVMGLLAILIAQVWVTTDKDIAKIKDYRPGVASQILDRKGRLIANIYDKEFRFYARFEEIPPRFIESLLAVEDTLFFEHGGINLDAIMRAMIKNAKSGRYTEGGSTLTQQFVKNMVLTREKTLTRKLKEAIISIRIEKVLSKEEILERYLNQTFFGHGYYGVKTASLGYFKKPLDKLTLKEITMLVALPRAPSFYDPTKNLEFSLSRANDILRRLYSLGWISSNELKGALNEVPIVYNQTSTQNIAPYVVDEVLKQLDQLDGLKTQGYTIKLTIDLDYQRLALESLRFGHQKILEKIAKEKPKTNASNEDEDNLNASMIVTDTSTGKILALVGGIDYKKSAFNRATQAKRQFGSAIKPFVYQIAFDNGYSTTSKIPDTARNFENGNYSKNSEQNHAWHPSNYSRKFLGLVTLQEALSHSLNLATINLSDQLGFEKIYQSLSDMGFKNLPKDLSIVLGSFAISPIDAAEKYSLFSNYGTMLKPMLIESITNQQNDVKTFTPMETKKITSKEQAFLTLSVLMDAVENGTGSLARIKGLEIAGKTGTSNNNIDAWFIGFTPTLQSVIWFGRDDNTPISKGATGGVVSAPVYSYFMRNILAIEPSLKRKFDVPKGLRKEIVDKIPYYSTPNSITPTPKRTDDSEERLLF
Method: Fluorescence anisotropy measurements were carried out in triplicates in the wells of 384-well plates using a laser fluorimetry equipped with a 488 nm laser (IsoCyte, Blueshift Biotech, Inc., Sunnyvale, Calif., USA). Various buffers, salts, pH values, and divalent cations (Ca^++, Mg^++, Co^++) were optimized for fluorescence anisotropy measurements. […] The scanning focus was above the plate bottom to avoid detection interferences. Data analysis was performed with the proprietary software, BlueImage (Blueshift Biotech Inc). Fluorescence anisotropy values (A) were calculated using the equation: A=(/∥−G*/⊥)/(/∥+2G*/⊥), where /∥ is the fluorescence intensity of emitted light parallel to excitation, /⊥ is the fluorescence intensity of emitted light perpendicular to excitation, and G is the […] that corrects for instrument bias. The G factor is experimentally determined for each run using the probe-only well as the basal an isotropy.
For the development of an assay for inhibitor screening, F-Moe was pre-incubated with H. pylori PBP1a and then competed with unlabeled Moe A at various concentrations.
For displacement assay, the initial condition contained 40 μl of 100 nM F-Moe, 10 μg/ml H. pylori PBP1a in 10 mM Tris, pH 8.0, 100 mM NaCl. Aliquots of compound stock solution were added and the anisotropy was monitored after 5 minutes of equilibration. The data from the displacement assay was used to calculate the inhibition constant (KI) and IC50 value of an inhibitor using the complete competitive binding model
[formula] The KI value was determined by plotting the total inhibitor concentration (C) versus the molar ratio of bound/free F-Moe and fitting the resulting curve to [Eq. 2], C=[(KI/KD*X)+1][RT−(LST*X)/(X+1)−KD*X [Eq. 2] […] The reported value is the average of four different runs.
For IC50 determination, the fraction of bound fluorescent probe is plotted versus the log value of the competitor concentration (C).

[6] = B. subtilis ATCC23857, Muller-Hilton broth, 18 h to 24 h, 37° C., read-out: MIC B. subtilis (ATCC23857)
[7] = E. faecalis ATCC29212, Muller-Hilton broth, 18 h to 24 h, 37° C., read-out: MIC E. faecalis (ATCC29212)
[8] = S. aureus ATCC29213, Muller-Hilton broth, 18 h to 24 h, 37° C., read-out: MIC S. aureus (ATCC29213)
[9] = S. pneumoniae ATCC49619, Muller-Hilton broth with blood, 18 h to 24 h, 37° C., read-out: MIC S. pneumoniae (ATCC49619)

Structure (SMILES)	MIC [1, 6] [µM]	MIC [2, 7] [µM]	MIC [3, 8] [µM]	MIC [4, 9] [µM]	IC50 [5] [µM]	MIC ([1]; ATCC23857, read-out: MIC B. subtilis (ATCC23857)) [µM]	MIC ([2]; ATCC29212, read-out: MIC E. faecalis (ATCC29212)) [µM]	MIC ([3]; ATCC29213, read-out: MIC S. aureus (ATCC29213)) [µM]	MIC ([4]; ATCC49619, read-out: MIC S. pneumoniae (ATCC49619)) [µM]
O=C1OC(c2ccc(Br)cc2)=C/C1=C/c1ccc([N+](=O)[O-])o1 [Compound 6, (Z)-5-(4-bromophenyl)-3-((5-nitrofuran-2-yl)methylene)furan-2(3H)-one]	0.25 (≈ 0.0905 µg/mL)	0.25 (≈ 0.0905 µg/mL)	1 (≈ 0.362 µg/mL)	4 (≈ 1.45 µg/mL)	34				
C=C(CC=C(C)CCC=C(C)C)CCC(C)(C)C=CCCC(C)=CCOC(COP(=O)(O)OC1OC(C(N)=O)C(C)(O)C(OC(N)=O)C1OC1OC(COC2OC(CO)C(O)C(O)C2O)C(OC2OC(C)C(OC3OC(c4nc(C(=O)CCC(=O)O)nn4-c4ccc([N+](=O)[O-])c(C(=O)NCCNC(=O)CCCCCCC(=O)NCCNC(=O)c5cc(-n6nc(C(=O)CCC(=O)O)nc6C6OC(OC7C(C)OC(OC8C(COC9OC(CO)C(O)C(O)C9O)OC(OC9C(OP(=O)(O)OCC(OCC=C(C)CCC=CC(C)(C)CCC(=C)CC=C(C)CCC=C(C)C)C(=O)O)OC(C(N)=O)C(C)(O)C9OC(N)=O)C(NC(C)=O)C8O)C(NC(C)=O)C7O)C(O)C(O)C6O)ccc5[N+](=O)[O-])c4)C(O)C(O)C3O)C(O)C2NC(C)=O)C(O)C1NC(C)=O)C(=O)O (stereo not drawn) [Compound 4]					0.92	1.25 (≈ 4.72 µg/mL)	5 (≈ 18.9 µg/mL)	0.625 (≈ 2.36 µg/mL)	20 (≈ 75.5 µg/mL)
O=C1/C(=N\Nc2nccs2)C(c2ccccc2)=NN1c1ccccc1 [Compound 7]	0.25 (≈ 0.0869 µg/mL)	1 (≈ 0.347 µg/mL)	4 (≈ 1.39 µg/mL)		3.7				
C=C(CC=C(C)CCC=C(C)C)CCC(C)(C)C=CCCC(C)=CCOC(COP(=O)(O)OC1OC(C(N)=O)C(C)(O)C(OC(N)=O)C1OC1OC(COC2OC(CO)C(O)C(O)C2O)C(OC2OC(C)C(OC3OC(c4nc(C(=O)CCC(=O)O)nn4-c4ccc([N+](=O)[O-])c(C(=O)NCCN)c4)C(O)C(O)C3O)C(O)C2NC(C)=O)C(O)C1NC(C)=O)C(=O)O (stereo not drawn) [Compound 2]	2.5 (≈ 4.54 µg/mL)	10 (≈ 18.2 µg/mL)	1.25 (≈ 2.27 µg/mL)	20 (≈ 36.4 µg/mL)	2.1				
C/C(=C\c1ccc(C(=O)O)cc1)c1ccc2c(c1)C(C)(C)CCC2(C)C [Compound 8, (E)-4-(2-(5,5,8,8,-tetramethyl-5,6,7,8-tetrahydronaphthalen-2-yl)prop-1-enyl)benzoic acid]	4 (≈ 1.39 µg/mL)	> 4	> 4	> 4	9.3				
